# Measured values as given in ChEMBL document CHEMBL3885881, “DrugMatrix”.
# Species on record: Rattus norvegicus
# Test: DrugMatrix - Regimen: Daily Repeat
# Type: toxicity, organism-based, Sprague-Dawley
# Set-up: regimen Daily Repeat, gender Male, age 6-8 weeks
# Details: in vivo, po, route oral GAVAGE, vehicle .5 % CMC; for ABSOLUTE BASOPHIL / ABSOLUTE EOSINOPHIL / ABSOLUTE LYMPHOCYTE / ABSOLUTE MONOCYTE / ABSOLUTE SEGMENTED NEUTROPHIL / BASOPHIL / EOSINOPHIL / ERYTHROCYTE COUNT / HEMATOCRIT / HEMOGLOBIN / LEUKOCYTE COUNT / LYMPHOCYTE / MEAN CORPUSCULAR HEMOGLOBIN / MEAN CORPUSCULAR VOLUME / MONOCYTE / NEUTROPHIL / NUCLEATED RED BLOOD CELLS / PLATELET COUNT: tissue Blood; for ALANINE AMINOTRANSFERASE / ALBUMIN / ALKALINE PHOSPHATASE / ASPARTATE AMINOTRANSFERASE / BLOOD UREA NITROGEN / CARBON DIOXIDE / CHLORIDE / CHOLESTEROL / CREATINE PHOSPHOKINASE / CREATININE / GLUCOSE / LACTATE DEHYDROGENASE / LIPASE / PHOSPHORUS / POTASSIUM / SODIUM / TOTAL BILIRUBIN / TOTAL PROTEIN / URIC ACID: tissue Plasma
# [1] = 68 mg/kg, 72 h, dose level Low, time 3 day
# [2] = 68 mg/kg, 120 h, dose level Low, time 5 day
# [3] = 750 mg/kg, 72 h, dose level High, time 3 day
# [4] = 750 mg/kg, 120 h, dose level High, time 5 day
smiles,measurement,setting,value
C(=C\c1ccccc1)/CN1CCN(C(c2ccccc2)c2ccccc2)CC1 [CINNARIZINE],ABSOLUTE BASOPHIL,[1],0 CELLS/uL
same,ABSOLUTE EOSINOPHIL,[1],0 CELLS/uL
same,ABSOLUTE LYMPHOCYTE,[1],14250 CELLS/uL
same,ABSOLUTE MONOCYTE,[1],268.67 CELLS/uL
same,ABSOLUTE SEGMENTED NEUTROPHIL,[1],1614.67 CELLS/uL
same,BASOPHIL,[1],0%
same,EOSINOPHIL,[1],0%
same,ERYTHROCYTE COUNT,[1],5.37 x10E6/uL
same,HEMATOCRIT,[1],33.93%
same,HEMOGLOBIN,[1],12.87 G/DL
same,LEUKOCYTE COUNT,[1],16.13 x10E3/uL
same,LYMPHOCYTE,[1],88.33%
same,MEAN CORPUSCULAR HEMOGLOBIN,[1],24 pg
same,MEAN CORPUSCULAR VOLUME,[1],63.2 fL
same,MONOCYTE,[1],1.67%
same,NEUTROPHIL,[1],10%
same,NUCLEATED RED BLOOD CELLS,[1],0 /100WBC
same,PLATELET COUNT,[1],1225 x10E3/uL
same,ALANINE AMINOTRANSFERASE,[1],45.33 u/L
same,ALBUMIN,[1],4.37 G/DL
same,ALKALINE PHOSPHATASE,[1],323 u/L
same,ASPARTATE AMINOTRANSFERASE,[1],68.67 u/L
same,BLOOD UREA NITROGEN,[1],15.33 mg/dL
same,CARBON DIOXIDE,[1],24.33 mmol/L
same,CHLORIDE,[1],102 MEQ/L
same,CHOLESTEROL,[1],67.33 mg/dL
same,CREATINE PHOSPHOKINASE,[1],220.67 u/L
same,CREATININE,[1],0.17 mg/dL
same,GLUCOSE,[1],136.33 mg/dL
same,LACTATE DEHYDROGENASE,[1],186 u/L
same,LIPASE,[1],9 u/L
same,PHOSPHORUS,[1],11.57 mg/dL
same,POTASSIUM,[1],6.72 MEQ/L
same,SODIUM,[1],145.13 MEQ/L
same,TOTAL BILIRUBIN,[1],0.2 mg/dL
same,TOTAL PROTEIN,[1],5.33 G/DL
same,URIC ACID,[1],1.7 mg/dL
same,ABSOLUTE BASOPHIL,[2],0 CELLS/uL
same,ABSOLUTE EOSINOPHIL,[2],62.67 CELLS/uL
same,ABSOLUTE LYMPHOCYTE,[2],17347 CELLS/uL
same,ABSOLUTE MONOCYTE,[2],686 CELLS/uL
same,ABSOLUTE SEGMENTED NEUTROPHIL,[2],2204.33 CELLS/uL
same,BASOPHIL,[2],0%
same,EOSINOPHIL,[2],0.33%
same,ERYTHROCYTE COUNT,[2],5.91 x10E6/uL
same,HEMATOCRIT,[2],36.67%
same,HEMOGLOBIN,[2],13.63 G/DL
same,LEUKOCYTE COUNT,[2],20.3 x10E3/uL
same,LYMPHOCYTE,[2],85.33%
same,MEAN CORPUSCULAR HEMOGLOBIN,[2],23.13 pg
same,MEAN CORPUSCULAR VOLUME,[2],62.13 fL
same,MONOCYTE,[2],3.33%
same,NEUTROPHIL,[2],11%
same,NUCLEATED RED BLOOD CELLS,[2],0 /100WBC
same,PLATELET COUNT,[2],1382.33 x10E3/uL
same,ALANINE AMINOTRANSFERASE,[2],44 u/L
same,ALBUMIN,[2],4.3 G/DL
same,ALKALINE PHOSPHATASE,[2],307 u/L
same,ASPARTATE AMINOTRANSFERASE,[2],78.33 u/L
same,BLOOD UREA NITROGEN,[2],21.67 mg/dL
same,CARBON DIOXIDE,[2],26 mmol/L
same,CHLORIDE,[2],107.33 MEQ/L
same,CHOLESTEROL,[2],53.33 mg/dL
same,CREATINE PHOSPHOKINASE,[2],288.33 u/L
same,CREATININE,[2],0.19 mg/dL
same,GLUCOSE,[2],133 mg/dL
same,LACTATE DEHYDROGENASE,[2],263 u/L
same,LIPASE,[2],8.67 u/L
same,PHOSPHORUS,[2],11.3 mg/dL
same,POTASSIUM,[2],6.89 MEQ/L
same,SODIUM,[2],145.37 MEQ/L
same,TOTAL BILIRUBIN,[2],0.17 mg/dL
same,TOTAL PROTEIN,[2],6.13 G/DL
same,URIC ACID,[2],1.5 mg/dL
same,ABSOLUTE BASOPHIL,[3],0 CELLS/uL
same,ABSOLUTE EOSINOPHIL,[3],121.67 CELLS/uL
same,ABSOLUTE LYMPHOCYTE,[3],10962.67 CELLS/uL
same,ABSOLUTE MONOCYTE,[3],242 CELLS/uL
same,ABSOLUTE SEGMENTED NEUTROPHIL,[3],773.67 CELLS/uL
same,BASOPHIL,[3],0%
same,EOSINOPHIL,[3],1%
same,ERYTHROCYTE COUNT,[3],6.6 x10E6/uL
same,HEMATOCRIT,[3],41.67%
same,HEMOGLOBIN,[3],15.33 G/DL
same,LEUKOCYTE COUNT,[3],12.1 x10E3/uL
same,LYMPHOCYTE,[3],90.67%
same,MEAN CORPUSCULAR HEMOGLOBIN,[3],23.23 pg
same,MEAN CORPUSCULAR VOLUME,[3],63.07 fL
same,MONOCYTE,[3],2%
same,NEUTROPHIL,[3],6.33%
same,NUCLEATED RED BLOOD CELLS,[3],0 /100WBC
same,PLATELET COUNT,[3],1456.67 x10E3/uL
same,ALANINE AMINOTRANSFERASE,[3],52.33 u/L
same,ALBUMIN,[3],4.3 G/DL
same,ALKALINE PHOSPHATASE,[3],423.33 u/L
same,ASPARTATE AMINOTRANSFERASE,[3],79.33 u/L
same,BLOOD UREA NITROGEN,[3],19 mg/dL
same,CARBON DIOXIDE,[3],26.67 mmol/L
same,CHLORIDE,[3],99.33 MEQ/L
same,CHOLESTEROL,[3],58.67 mg/dL
same,CREATINE PHOSPHOKINASE,[3],294.67 u/L
same,CREATININE,[3],0.19 mg/dL
same,GLUCOSE,[3],138 mg/dL
same,LACTATE DEHYDROGENASE,[3],240.67 u/L
same,LIPASE,[3],10 u/L
same,PHOSPHORUS,[3],11.73 mg/dL
same,POTASSIUM,[3],6.79 MEQ/L
same,SODIUM,[3],141.93 MEQ/L
same,TOTAL BILIRUBIN,[3],0.17 mg/dL
same,TOTAL PROTEIN,[3],6.1 G/DL
same,URIC ACID,[3],1.8 mg/dL
same,ABSOLUTE BASOPHIL,[4],0 CELLS/uL
same,ABSOLUTE EOSINOPHIL,[4],0 CELLS/uL
same,ABSOLUTE LYMPHOCYTE,[4],10935.67 CELLS/uL
same,ABSOLUTE MONOCYTE,[4],287 CELLS/uL
same,ABSOLUTE SEGMENTED NEUTROPHIL,[4],1277.33 CELLS/uL
same,BASOPHIL,[4],0%
same,EOSINOPHIL,[4],0%
same,ERYTHROCYTE COUNT,[4],6.35 x10E6/uL
same,HEMATOCRIT,[4],38.33%
same,HEMOGLOBIN,[4],14.23 G/DL
same,LEUKOCYTE COUNT,[4],12.5 x10E3/uL
same,LYMPHOCYTE,[4],87.67%
same,MEAN CORPUSCULAR HEMOGLOBIN,[4],22.4 pg
same,MEAN CORPUSCULAR VOLUME,[4],60.4 fL
same,MONOCYTE,[4],2.33%
same,NEUTROPHIL,[4],10%
same,NUCLEATED RED BLOOD CELLS,[4],0 /100WBC
same,PLATELET COUNT,[4],1123.67 x10E3/uL
same,ALANINE AMINOTRANSFERASE,[4],56 u/L
same,ALBUMIN,[4],4.1 G/DL
same,ALKALINE PHOSPHATASE,[4],361.67 u/L
same,ASPARTATE AMINOTRANSFERASE,[4],78.67 u/L
same,BLOOD UREA NITROGEN,[4],17.67 mg/dL
same,CARBON DIOXIDE,[4],27 mmol/L
same,CHLORIDE,[4],103.67 MEQ/L
same,CHOLESTEROL,[4],72.33 mg/dL
same,CREATINE PHOSPHOKINASE,[4],366.67 u/L
same,CREATININE,[4],0.16 mg/dL
same,GLUCOSE,[4],155.33 mg/dL
same,LACTATE DEHYDROGENASE,[4],194.67 u/L
same,LIPASE,[4],10 u/L
same,PHOSPHORUS,[4],12.9 mg/dL
same,POTASSIUM,[4],7.06 MEQ/L
same,SODIUM,[4],147.1 MEQ/L
same,TOTAL BILIRUBIN,[4],0.17 mg/dL
same,TOTAL PROTEIN,[4],5.9 G/DL
same,URIC ACID,[4],2 mg/dL
